# Experimental data published in paper PMC12973313 (Chemical Science, 2026).
# “And” between values parts separate entries of the source, which are not always exact repeats. Equal entries are not always repeated. Where two headings read alike, the source gives them in different places.
# Experiments:
# [1] = H2O 5% EtOH, 5.56 mM; cited from earlier work
# [2] = Metabolic stability in liver microsomes; assay type: in vitro ADME, human
# Description: (§1) Following this, the metabolic stability of 9 was determined against mouse, rat, and human liver microsomes. […] Within this assay the stability of the intact parent compound is monitored with respect to time, during incubation at 37 °C in the presence and absence of the co-factor NADPH – required for cytochrome p450 activity.
# (§2) Metabolic Stability in Rat, Mouse and Human Liver Microsomes:
# The metabolic stability of compounds at a concentration of 1 µM, in rat, mouse and human liver microsomes (BD Gentest, Franklin Lakes NJ) was measured following incubation with hepatic microsomes (0.5 mg of protein / mL) in the presence and absence of cofactor (NADPH) at 37 °C. Aliquots of each incubation were removed at 0.5, 5, 15, 30 and 60 minutes. […]
# Samples were analysed using a Shimadzu Shimadzu Nexera LC Binary Gradient LC-30AD (Shimadzu Inc, Kyoto), coupled to a Sciex 5500 mass spectrometer (AB Inc., Illinois) for rat and mouse microsomes and a Sciex 6500+ for human microsomes. […]
# The bi-directional permeability in Caco-2 cell lines was determined by seeding cells onto an HTS Transwell plate. […] To assess monolayer integrity the transepithelial electrical resistance (TEER) across the monolayer was measured using Millicell Epithelial volt-ohm meter prior to assay and Lucifer yellow (LY) fluorescence measurement post-assay. […]
# [3] = Metabolic stability in liver microsomes; assay type: in vitro ADME, rat
# Description: as §1, §2
# The metabolic stability of compounds at a concentration of 1 µM, in rat, mouse and human liver microsomes (BD Gentest, Franklin Lakes NJ) was measured following incubation with […]
# (NADPH) at 37 °C. Aliquots of each incubation were removed at 0.5, 5, 15, 30 and 60 minutes. The reaction was stopped by the addition of cold acetonitrile containing analytical […]
# Samples were then centrifuged at 3,220 g for 40 minutes. The supernatant was aliquoted and added to ultra-pure H2O in a 1:1 ratio in preparation for LC-MS/MS analysis.
# Incubations were conducted in duplicate; control incubations (substituting PBS for NADPH) were conducted simultaneously.
# Samples were analysed using a Shimadzu Shimadzu Nexera LC Binary Gradient LC-30AD (Shimadzu Inc, Kyoto), coupled to a Sciex 5500 mass spectrometer (AB Inc., Illinois) for rat and mouse microsomes and a Sciex 6500+ for human microsomes. Separation achieved using an XSelect HSS T3 column (2.5µm, 50 x 2.1 mm) (Waters Ltd., Wilmslow) at a temperature of 40°C and a binary mobile phase gradient at a flow rate of 0.7 mL/min. Initial […]
# (0.1% formic acid in acetonitrile).
# 0.5 minutes and then immediately returned to initial conditions. Sample analysis was by electrospray ionisation combined with multiple reaction monitoring in positive ion mode.
# The ionspray voltage was 5500V.
# Bi-directional Permeability in Caco-2 Cell Line: […]
smiles,measurement,setting,value
O=C(O)CNC(=O)Nc1ccc(C(F)(F)F)cc1 [SSA 1],Zeta potential (mV),[1],-37 mV and −37 (ref. [30]) mV
O=C(Nc1ccc(C(F)(F)F)cc1)N[C@H](Cc1ccccc1)C(=O)O [SSA 9],microsomal CLint at 1 µM,[2]; human microsomes,< 7.5 µL/min/mg
same,half-life at 1 µM,"[2]; human, 1 µM, 0.5 mg protein/mL, read-out: In vitro t1/2",> 3.08 h
same,microsomal CLint at 1 µM,"[3]; liver microsomes, rat microsomes",< 7.5 µL/min/mg
same,Hepatic Extraction Ratio (ER),[3]; rat,< 0.21
same,Predicted Hepatic CLH,[3]; rat,< 0.8652 L/h/kg
same,In vitro t1/2,"[3]; rat, 1 µM, 0.5 mg protein/mL",> 3.0797 h
same,Remaining percentage (%) 0.5 min,"[3]; rat, +Cofactors",100.00%
same,Remaining percentage (%) 5 min,"[3]; rat, +Cofactors",107.16%
same,Remaining percentage (%) 15 min,"[3]; rat, +Cofactors",104.62%
same,Remaining percentage (%) 30 min,"[3]; rat, +Cofactors",102.68%
same,Remaining percentage (%) 60 min,"[3]; rat, +Cofactors",102.41%
same,Remaining percentage (%) 0.5 min,"[3]; rat, -Cofactors",100.00%
same,Remaining percentage (%) 60 min,"[3]; rat, -Cofactors",107.67%
same,half-life at 1 µM,"[3]; rat, liver microsomes, rat, 1 µM, 0.5 mg protein/mL, read-out: In vitro t1/2",> 3.08 h
same,CLint scaled at 1 µM,"[3]; rat, liver microsomes, read-out: Scale-up CLint",< 1.1 L/h/kg
